We go through 14 compounds from ChEMBL document CHEMBL1148480, “Structure-activity studies of orexin a and orexin B at the human orexin 1 and orexin 2 receptors led to orexin 2 receptor selective and orexin 1 receptor preferring ligands” (J Med Chem, 2004).

SMILES strings stand for the structures. Non-standard residues stand in square brackets, D forms with d. Residues, ends and D or L forms follow the SMILES beside them. pGlu = O=C1CC[C@@H](C(=O)O)N1; Abu = CC[C@H](N)C(=O)O; Ahx = NCCCCCC(=O)O A value given as a limit tells only on which side of the number the result lay.

For the assay, the target named is T1, Orexin/Hypocretin receptor type 1 (Homo sapiens, UniProt O43613).
T1 sequence (O43613 whole entry): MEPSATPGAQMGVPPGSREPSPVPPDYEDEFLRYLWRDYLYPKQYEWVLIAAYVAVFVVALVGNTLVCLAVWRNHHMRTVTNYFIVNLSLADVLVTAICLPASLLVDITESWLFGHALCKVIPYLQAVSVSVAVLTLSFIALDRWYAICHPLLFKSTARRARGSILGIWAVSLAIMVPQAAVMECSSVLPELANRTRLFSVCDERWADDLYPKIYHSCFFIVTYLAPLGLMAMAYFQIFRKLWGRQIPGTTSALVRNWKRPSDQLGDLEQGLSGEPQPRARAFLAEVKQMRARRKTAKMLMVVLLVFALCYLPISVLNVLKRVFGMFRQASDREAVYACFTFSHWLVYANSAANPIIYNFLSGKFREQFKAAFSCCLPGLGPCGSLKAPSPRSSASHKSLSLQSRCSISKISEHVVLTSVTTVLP
Nature of the assay: Effective agonist concentration to human orexin receptor type 1 determined using the Xlfit program. The class given is functional.
In turn, `CC[C@H](C)[C@H](NC(=O)CNC(=O)[C@H](C)NC(=O)[C@H](C)NC(=O)[C@H](Cc1cnc[nH]1)NC(=O)[C@H](CC(N)=O)NC(=O)CNC(=O)[C@H](CO)NC(=O)[C@H](C)NC(=O)[C@H](CCC(N)=O)NC(=O)[C@H](CC(C)C)NC(=O)[C@H](CC(C)C)NC(=O)[C@@H]1CCCN1C(=O)[C@H](CCC(N)=O)NC(=O)[C@H](CC(C)C)NC(=O)[C@H](CCCNC(=N)N)NC(=O)CNC(=O)[C@H](CCC(N)=O)NC(=O)[C@H](CC(C)C)NC(=O)CN)C(=O)N[C@@H](CC(C)C)C(=O)N[C@H](C(=O)N[C@@H](CCSC)C(N)=O)[C@@H](C)O` (H-GLQGRLQPLLQASGNHAAGILTM-NH2) displayed a half-maximal effective concentration (EC50) of 17.8 µM.

Take `CC[C@H](C)[C@H](NC(=O)CNC(=O)[C@H](C)NC(=O)[C@H](C)NC(=O)[C@H](Cc1c[nH]cn1)NC(=O)[C@H](CC(N)=O)NC(=O)CN)C(=O)N[C@@H](CC(C)C)C(=O)N[C@H](C(=O)N[C@@H](CC(C)C)C(N)=O)[C@@H](C)O` (H-GNHAAGILTL-NH2): the EC50 is more than 1000 µM.

`CC[C@H](C)[C@H](NC(=O)CNC(=O)[C@H](C)NC(=O)[C@H](C)NC(=O)[C@H](Cc1c[nH]cn1)NC(=O)[C@H](CC(N)=O)NC(=O)CNC(=O)[C@H](C)NC(=O)CNC(=O)[C@H](Cc1c[nH]cn1)NC(=O)[C@H](CC(C)C)NC(=O)[C@H](CC(C)C)NC(=O)[C@H](CCC(=O)O)NC(=O)[C@H](Cc1ccc(O)cc1)NC(=O)[C@H](CC(C)C)NC(=O)[C@H](CCCN=C(N)N)NC(=O)[C@H](CS)NC(=O)[C@H](CO)NC(=O)[C@H](CS)NC(=O)[C@@H](NC(=O)[C@H](CCCCN)NC(=O)[C@H](CCC(N)=O)NC(=O)[C@H](CCCN=C(N)N)NC(=O)[C@H](CS)NC(=O)[C@@H](N)CS)[C@@H](C)O)C(=O)N[C@@H](CC(C)C)C(=O)N[C@H](C(=O)N[C@@H](CC(C)C)C(N)=O)[C@@H](C)O` (H-CCRQKTCSCRLYELLHGAGNHAAGILTL-NH2): the EC50 came to 0.81 µM. In turn, `CC[C@H](C)[C@H](NC(=O)CNC(=O)[C@H](C)NC(=O)[C@H](C)NC(=O)[C@H](Cc1c[nH]cn1)NC(=O)[C@H](CC(N)=O)NC(=O)CNC(=O)[C@H](C)NC(=O)CNC(=O)[C@H](Cc1c[nH]cn1)NC(=O)[C@H](CC(C)C)NC(=O)[C@H](CC(C)C)NC(=O)[C@H](CCC(=O)O)NC(=O)[C@H](Cc1ccc(O)cc1)NC(=O)[C@H](CC(C)C)NC(=O)[C@H](CCCN=C(N)N)NC(=O)[C@H](CS)NC(=O)[C@H](CO)NC(=O)[C@H](CS)NC(=O)[C@@H](NC(=O)[C@H](CCCCN)NC(=O)[C@H](CCC(N)=O)NC(=O)[C@H](CCCN=C(N)N)NC(=O)[C@H](CS)NC(=O)[C@H](CS)NC(=O)[C@H](CC(=O)O)NC(=O)[C@@H]1CCCN1)[C@@H](C)O)C(=O)N[C@@H](CC(C)C)C(=O)N[C@H](C(=O)N[C@@H](CC(C)C)C(N)=O)[C@@H](C)O` (H-PDCCRQKTCSCRLYELLHGAGNHAAGILTL-NH2) displayed an EC50 of 0.64 µM.

`CC[C@H](C)[C@H](NC(=O)CNC(=O)[C@H](C)NC(=O)[C@H](C)NC(=O)[C@H](Cc1c[nH]cn1)NC(=O)[C@H](CC(N)=O)NC(=O)CNC(=O)[C@H](C)NC(=O)CNC(=O)[C@H](Cc1c[nH]cn1)NC(=O)[C@H](CC(C)C)NC(=O)[C@@H](N)CC(C)C)C(=O)N[C@@H](CC(C)C)C(=O)N[C@H](C(=O)N[C@@H](CC(C)C)C(N)=O)[C@@H](C)O` (H-LLHGAGNHAAGILTL-NH2) displayed an EC50 of more than 1000 µM. The value for `CC[C@H](C)[C@H](NC(=O)CNC(=O)[C@H](C)NC(=O)[C@H](C)NC(=O)[C@H](Cc1c[nH]cn1)NC(=O)[C@H](CC(N)=O)NC(=O)CNC(=O)[C@H](CO)NC(=O)[C@H](C)NC(=O)[C@H](CCC(N)=O)NC(=O)[C@H](CC(C)C)NC(=O)[C@H](CC(C)C)NC(=O)[C@H](CCCN=C(N)N)NC(=O)[C@H](CCC(N)=O)NC(=O)[C@H](CC(C)C)NC(=O)[C@H](CCCN=C(N)N)NC(=O)[C@@H]1CCCN1C(=O)[C@H](CCC(N)=O)NC(=O)[C@H](CC(C)C)NC(=O)CN)C(=O)N[C@@H](CC(C)C)C(=O)N[C@H](C(=O)N[C@@H](CCSC)C(N)=O)[C@@H](C)O` (H-GLQPRLQRLLQASGNHAAGILTM-NH2) was 4.46 µM. In the case of `CC[C@H](C)[C@H](NC(=O)[C@H](C)NC(=O)[C@H](C)NC(=O)[C@H](C)NC(=O)[C@H](Cc1cnc[nH]1)NC(=O)[C@H](CC(N)=O)NC(=O)CNC(=O)[C@H](CO)NC(=O)[C@H](C)NC(=O)[C@H](CCC(N)=O)NC(=O)[C@H](CC(C)C)NC(=O)[C@H](CC(C)C)NC(=O)[C@H](CCCNC(=N)N)NC(=O)[C@H](CCC(N)=O)NC(=O)[C@H](CC(C)C)NC(=O)[C@H](CCCNC(=N)N)NC(=O)CNC(=O)[C@H](CCC(N)=O)NC(=O)[C@H](CC(C)C)NC(=O)CN)C(=O)N[C@@H](CC(C)C)C(=O)N[C@H](C(=O)N[C@@H](CCSC)C(=O)O)[C@@H](C)O` (H-GLQGRLQRLLQASGNHAAAILTM-OH), the concentration for a half-maximal effect (EC50) was more than 1000 µM.

Consider `CC[C@H](C)[C@H](NC(=O)CNC(=O)[C@H](C)NC(=O)[C@H](C)NC(=O)[C@H](Cc1c[nH]cn1)NC(=O)[C@H](CC(N)=O)NC(=O)CNC(=O)[C@H](CO)NC(=O)[C@H](C)NC(=O)[C@H](CCC(N)=O)NC(=O)[C@H](CC(C)C)NC(=O)[C@H](CC(C)C)NC(=O)[C@H](CCCN=C(N)N)NC(=O)[C@@H]1CCCN1C(=O)[C@H](CC(C)C)NC(=O)[C@H](CCCN=C(N)N)NC(=O)CNC(=O)[C@H](CCC(N)=O)NC(=O)[C@H](CC(C)C)NC(=O)CN)C(=O)N[C@@H](CC(C)C)C(=O)N[C@H](C(=O)N[C@@H](CCSC)C(N)=O)[C@@H](C)O` (stereo in doubt; form 1), for which the half-maximal effective concentration (EC50) amounted to 5.26 µM. The value for `CC[C@H](C)[C@H](NC(=O)CNC(=O)[C@H](C)NC(=O)[C@H](C)NC(=O)[C@H](Cc1cnc[nH]1)NC(=O)[C@H](CC(N)=O)NC(=O)CNC(=O)[C@H](CO)NC(=O)[C@H](C)NC(=O)[C@H](CCC(N)=O)NC(=O)[C@H](CC(C)C)NC(=O)[C@H](CC(C)C)NC(=O)[C@H](CCCNC(=N)N)NC(=O)[C@H](CCC(N)=O)NC(=O)[C@@H]1CCCN1C(=O)[C@H](CCCNC(=N)N)NC(=O)CNC(=O)[C@H](CCC(N)=O)NC(=O)[C@H](CC(C)C)NC(=O)CN)C(=O)N[C@@H](CC(C)C)C(=O)N[C@H](C(=O)N[C@@H](CCSC)C(N)=O)[C@@H](C)O` (H-GLQGRPQRLLQASGNHAAGILTM-NH2) was more than 1000 µM.

In the case of `CC[C@H](C)[C@H](NC(=O)CNC(=O)[C@H](C)NC(=O)[C@H](C)NC(=O)[C@H](Cc1cnc[nH]1)NC(=O)[C@H](CC(N)=O)NC(=O)CNC(=O)[C@H](C)NC(=O)CNC(=O)[C@H](Cc1cnc[nH]1)NC(=O)[C@H](CC(C)C)NC(=O)[C@H](CC(C)C)NC(=O)[C@H](CCC(=O)O)NC(=O)[C@H](Cc1ccc(O)cc1)NC(=O)[C@H](CC(C)C)NC(=O)[C@H](CCCNC(=N)N)NC(=O)CCCCCNC(=O)[C@H](CC(=O)O)NC(=O)[C@@H]1CCCN1C(=O)[C@H](CC(C)C)NC(=O)[C@@H]1CCCN1C(=O)[C@@H]1CCC(=O)N1)C(=O)N[C@@H](CC(C)C)C(=O)N[C@H](C(=O)N[C@@H](CC(C)C)C(=O)O)[C@@H](C)O` ([pGlu]PLPD[Ahx]RLYELLHGAGNHAAGILTL-OH), the concentration giving a half-maximal response (EC50) turned out to be 5.52 µM. Next, `CC[C@H](C)[C@H](NC(=O)CNC(=O)[C@H](C)NC(=O)[C@H](C)NC(=O)[C@H](Cc1c[nH]cn1)NC(=O)[C@H](CC(N)=O)NC(=O)CNC(=O)[C@H](CO)NC(=O)[C@H](C)NC(=O)[C@H](CCC(N)=O)NC(=O)[C@H](CC(C)C)NC(=O)[C@@H]1CCCN1C(=O)[C@H](CCCN=C(N)N)NC(=O)[C@H](CCC(N)=O)NC(=O)[C@H](CC(C)C)NC(=O)[C@H](CCCN=C(N)N)NC(=O)CNC(=O)[C@H](CCC(N)=O)NC(=O)[C@H](CC(C)C)NC(=O)CN)C(=O)N[C@@H](CC(C)C)C(=O)N[C@H](C(=O)N[C@@H](CCSC)C(N)=O)[C@@H](C)O` (H-GLQGRLQRPLQASGNHAAGILTM-NH2): more than 1000 µM; `CC[C@H](C)[C@H](NC(=O)CNC(=O)[C@H](C)NC(=O)[C@H](C)NC(=O)[C@@H](N)Cc1cnc[nH]1)C(=O)N[C@@H](CC(C)C)C(=O)N[C@H](C(=O)N[C@@H](CC(C)C)C(N)=O)[C@@H](C)O` (H-HAAGILTL-NH2): more than 1000 µM. The value for `CC[C@H](NC(=O)[C@H](CO)NC(=O)[C@H](CS)NC(=O)[C@@H](NC(=O)[C@H](CCCCN)NC(=O)[C@H](CCC(N)=O)NC(=O)[C@H](CCCN=C(N)N)NC(=O)[C@H](CC)NC(=O)[C@H](CS)NC(=O)[C@H](CC(=O)O)NC(=O)[C@@H]1CCCN1C(=O)[C@H](CC(C)C)NC(=O)[C@@H]1CCCN1C(=O)[C@@H]1CCC(=O)N1)[C@@H](C)O)C(=O)N[C@@H](CCCN=C(N)N)C(=O)N[C@@H](CC(C)C)C(=O)N[C@@H](Cc1ccc(O)cc1)C(=O)N[C@@H](CCC(=O)O)C(=O)N[C@@H](CC(C)C)C(=O)N[C@@H](CC(C)C)C(=O)N[C@@H](Cc1c[nH]cn1)C(=O)NCC(=O)N[C@@H](C)C(=O)NCC(=O)N[C@@H](CC(N)=O)C(=O)N[C@@H](Cc1c[nH]cn1)C(=O)N[C@@H](C)C(=O)N[C@@H](C)C(=O)NCC(=O)N[C@H](C(=O)N[C@@H](CC(C)C)C(=O)N[C@H](C(=O)N[C@@H](CC(C)C)C(=O)O)[C@@H](C)O)[C@@H](C)CC` ([pGlu]PLPDC[Abu]RQKTCS[Abu]RLYELLHGAGNHAAGILTL-OH) was 1.34 µM; that for `CC[C@H](C)[C@H](NC(=O)CNC(=O)[C@H](C)NC(=O)[C@H](C)NC(=O)[C@H](Cc1cnc[nH]1)NC(=O)[C@H](CC(N)=O)NC(=O)CNC(=O)[C@H](CO)NC(=O)[C@H](C)NC(=O)[C@H](CCC(N)=O)NC(=O)[C@H](CC(C)C)NC(=O)[C@@H](N)CC(C)C)C(=O)N[C@@H](CC(C)C)C(=O)N[C@H](C(=O)N[C@@H](CCSC)C(N)=O)[C@@H](C)O` (H-LLQASGNHAAGILTM-NH2) was more than 1000 µM.

Usually EC50 stands for the midpoint of the concentration-response curve. A low value points to a more potent agent.
